Source: publication PMC7200681, “The calcitonin-like system is an ancient regulatory system of biomineralization” (Scientific Reports, 2020)
Bridge positions count the residues as written; N and C are the ends.

Legend:
[1] = tested on: acid phosphatase (AP) activity in mussel mantle edge; assay: Acid phosphatase (TRAP) activity in mantle after ex-vivo incubation; set-up: species or system Mytilus galloprovincialis; conditions: after exposure to CALCIIa 10 μM or ouabain 2 mM; TRAP assay, pNPP, pH 5.3; p < 0.05
Experimental: (A) Esterase activity and (B) Acid phosphatase activity. Enzyme activity was quantified in protein extracts from the mantle of control or challenged samples that were incubated with the mussel CALCIIa peptide. Values represent the mean ± SEM (CA, n = 6 and TRAP, n = 10) performed in duplicate. Prism GraphPad v5 software was used to assess the significance of the differences between the groups using One-way Anova and Tukey’s multiple comparison test. […] C - control; P - peptide (10 μM); O - ouabain (2 mM), OP - ouabain (2 mM) and peptide (10 μM); PreOP - pre stimulation for 1 hour with the peptide and 4 hours incubation with OP.
The posterior mantle edge region of the Mediterranean mussel was collected and washed in culture medium. The composition of the culture medium was as described in[91] […] The culture medium was supplemented with heat inactivated 2% FBS (SIGMA-ALDRICH), 0.1% penicillin: streptomycin antibiotic mix (10.000 U:10 mg/ml, SIGMA-ALDRICH) and 250 μg/ml sterile filtered 1:100 amphotericin B solution (Sigma-Aldrich). The posterior mantle edge from mussels was collected into culture medium and cut into fragments of approximately 1–2 mm in length. […]
Acid phosphatase activity of the mantle protein extracts (n = 6/ group) was determined using 96 well-plates (GREINER, Germany) and a tartrate resistant acid phosphatase (TRAP) assay as described in[93].

mussel CALCRIIc = assay: Calcium mobilization assay (apoaequorin bioluminescence), dose-response, HEK 293 cells expressing mussel CALCRIIc; format: cell-based, Mytilus coruscus; conditions: HEK 293/apoaequorin, 1 μM to 0.01 nM
From the text: The complete sequence of the Mediterranean mussel CALCRIa was amplified using specific primers (Table 1) from cDNA of a tissue mixture (mantle, adductor muscle, gills, gonads) using a proofreading DNA polymerase (iProof BIORAD, Portugal) and cloned into the pGEMT-easy vector (PROMEGA, Spain). The Mediterranean mussel CALCRIIa transcript that was found in the mantle transcriptome was incomplete and lacked the N-terminus (by comparisons with the hard-shelled mussel homologue) and so the remaining sequence (from 1–393 bp) was deduced from the hard-shelled mussel homologue receptor and the receptor was synthesised and supplied by GENESCRIPT (USA). The complete transcripts for mussel CALCRIc, CALCRIIb and CALCRIIc were only found in the hard-shelled mussel mantle transcriptome and homologues were only found in the Mediterranean mussel genome as they were absent from the species mantle transcriptome and so they were also synthesised and supplied by GENESCRIPT (USA) using the hard-shelled mussel receptor sequences as template. […]
Mammalian cell cultures and transfections followed the methodology described by[89],[90]. […] Cell recovery was monitored daily and the medium was changed every two days until no cell death was observed. […]
HEK293 cells stably expressing five mussel receptors (CALCRIa, CALCRIc, CALCRIIa, CALCRIIb and CALCRIIc) were stimulated with the two mussel peptides and the vertebrate (human and salmon) calcitonins. Receptor activation was assessed in vitro by measuring two intracellular signalling pathways: a) production of cAMP and b) mobilization of calcium (Ca^2+). The cellular response was initially assessed using 10 μM of each peptide. […]
Stable cell lines expressing the mussel receptors were transiently co-transfected with the mitochondrial targeted apo-aequorin protein cloned in pcDNA3.1. Two days after transfection cells were washed, counted and resuspended in 1 ml of DMEM /F12 Ham (without phenol red)/0.1% BSA supplemented with 2 µM coelenterazine (SIGMA-ALDRICH). […]

H-CTWGGGMSDEMCSTVDIDEIQRSFQVIHDRNSP-NH2 (disulfide 1-12 (inferred)) [CALCIIa, Mediterranean mussel calcitonin-like mature peptide, 33 aa, synthesized with disulphide bond and C-terminal amidation]
Acid phosphatase (AP) activity in mantle edge compared to control (in words) [1]: significantly decreased | Activation of mussel CALCRIIc in dose-response analysis (in words) (mussel CALCRIIc): exclusively activated
